This is an account of results in patent US20230103791A1 (GLAXOSMITHKLINE INTELLECTUAL PROPERTY DEVELOPMENT LIMITED, priority 2019, published 2023).

T1 sequence (Q9Y5Y9 whole entry): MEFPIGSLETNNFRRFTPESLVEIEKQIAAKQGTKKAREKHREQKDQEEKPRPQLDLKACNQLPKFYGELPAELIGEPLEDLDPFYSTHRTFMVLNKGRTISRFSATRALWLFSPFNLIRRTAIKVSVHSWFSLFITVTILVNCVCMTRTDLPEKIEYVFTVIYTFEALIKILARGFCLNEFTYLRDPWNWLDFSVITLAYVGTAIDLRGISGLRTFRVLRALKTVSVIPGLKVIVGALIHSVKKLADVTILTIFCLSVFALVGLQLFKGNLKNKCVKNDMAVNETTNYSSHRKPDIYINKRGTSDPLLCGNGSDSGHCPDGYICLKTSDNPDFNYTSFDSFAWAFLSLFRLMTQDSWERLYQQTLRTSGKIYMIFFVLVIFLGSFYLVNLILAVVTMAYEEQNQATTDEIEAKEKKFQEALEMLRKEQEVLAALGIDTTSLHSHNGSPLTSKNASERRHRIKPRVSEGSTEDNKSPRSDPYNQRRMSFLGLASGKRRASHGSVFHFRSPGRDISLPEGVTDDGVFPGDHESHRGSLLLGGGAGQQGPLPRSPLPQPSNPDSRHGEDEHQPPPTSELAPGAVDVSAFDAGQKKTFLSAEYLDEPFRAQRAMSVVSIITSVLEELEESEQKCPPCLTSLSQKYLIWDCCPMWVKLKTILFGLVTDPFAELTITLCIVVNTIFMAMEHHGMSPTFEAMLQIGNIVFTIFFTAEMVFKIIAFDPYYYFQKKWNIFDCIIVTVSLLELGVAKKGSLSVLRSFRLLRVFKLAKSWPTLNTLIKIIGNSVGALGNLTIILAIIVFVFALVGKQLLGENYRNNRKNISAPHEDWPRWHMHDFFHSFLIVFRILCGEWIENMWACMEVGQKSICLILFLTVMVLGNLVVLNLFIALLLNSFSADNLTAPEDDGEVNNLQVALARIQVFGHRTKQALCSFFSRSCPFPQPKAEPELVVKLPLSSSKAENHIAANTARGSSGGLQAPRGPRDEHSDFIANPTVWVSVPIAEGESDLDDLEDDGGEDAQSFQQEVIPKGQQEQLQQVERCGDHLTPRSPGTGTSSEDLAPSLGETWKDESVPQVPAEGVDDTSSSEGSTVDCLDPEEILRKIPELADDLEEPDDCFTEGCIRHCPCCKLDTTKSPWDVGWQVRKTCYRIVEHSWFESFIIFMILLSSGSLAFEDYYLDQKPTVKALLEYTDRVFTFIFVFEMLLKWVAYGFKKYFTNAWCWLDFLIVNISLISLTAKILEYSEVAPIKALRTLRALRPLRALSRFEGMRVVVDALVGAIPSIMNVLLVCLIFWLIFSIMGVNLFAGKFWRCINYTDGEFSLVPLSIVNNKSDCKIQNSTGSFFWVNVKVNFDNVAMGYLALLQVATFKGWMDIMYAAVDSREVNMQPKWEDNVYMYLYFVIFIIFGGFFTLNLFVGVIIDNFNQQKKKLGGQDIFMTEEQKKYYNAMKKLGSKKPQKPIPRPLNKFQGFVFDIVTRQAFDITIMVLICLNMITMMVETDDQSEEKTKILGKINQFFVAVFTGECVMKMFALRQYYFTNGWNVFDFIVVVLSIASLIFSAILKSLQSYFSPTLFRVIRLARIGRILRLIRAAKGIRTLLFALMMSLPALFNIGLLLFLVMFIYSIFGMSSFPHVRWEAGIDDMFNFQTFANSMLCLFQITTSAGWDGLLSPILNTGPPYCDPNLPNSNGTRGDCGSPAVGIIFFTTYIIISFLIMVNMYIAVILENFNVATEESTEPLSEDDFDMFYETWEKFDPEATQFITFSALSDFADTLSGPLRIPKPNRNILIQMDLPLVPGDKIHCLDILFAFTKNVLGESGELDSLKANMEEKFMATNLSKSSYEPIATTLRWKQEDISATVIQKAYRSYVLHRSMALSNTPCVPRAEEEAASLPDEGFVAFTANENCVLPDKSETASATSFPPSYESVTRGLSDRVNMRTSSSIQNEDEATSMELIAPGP
T1 sequence (Q07699 19-218 partner): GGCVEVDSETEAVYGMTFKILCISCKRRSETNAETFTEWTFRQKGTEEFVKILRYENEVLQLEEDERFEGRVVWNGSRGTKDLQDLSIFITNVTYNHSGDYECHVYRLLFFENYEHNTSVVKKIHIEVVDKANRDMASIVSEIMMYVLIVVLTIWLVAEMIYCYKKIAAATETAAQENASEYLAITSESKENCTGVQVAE

The assay concerns the target T1, human Nav1.8 (Homo sapiens, UniProt Q9Y5Y9).
T1 construct: expressed in transfected cells; host or cells: HEK293 (HEK293-Nav1.8)
As to the kind of experiment: Nav1.8 sodium channels assay, QPatch 48 HTX electrophysiology in HEK293-Nav1.8 cells. The assay is classed as cell-based. As to conditions: at least one set of experimental runs; read-out: average pIC50 value against Nav1.8 (converted). An outline of the steps:
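IC50 came from 6-8 point curves of P2 current amplitude, normalized to baseline and a positive reference, and corrected for run-down using vehicle-only wells. Automated patch clamp used HEK293-Nav1.8 (with Navβ1 and TREK1) at pH 7.4 outside and CsF-based solution inside. An 8 s inactivating step at −46 mV preceded the 0 mV test pulse, repeated at 0.07 Hz.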
Consider `Cc1cc(F)ccc1N1CN(c2ccc(=O)[nH]c2)C(=O)c2ccc(C(F)(F)F)c(C)c21` [Example 45, 1-(4-fluoro-2-methylphenyl)-8-methyl-3-(6-oxo-1,6-dihydropyridin-3-yl)-7-(trifluoromethyl)-2,3-dihydroquinazolin-4(1H)-one], for which the IC50 was 794 to 7940 nM.
As to `Cc1ncccc1N1CN(c2ccc(=O)[nH]c2C)C(=O)c2ccc(C(F)(F)F)cc21` [Example 46, 3-(2-methyl-6-oxo-1,6-dihydropyridin-3-yl)-1-(2-methylpyridin-3-yl)-7-(trifluoromethyl)-2,3-dihydroquinazolin-4(1H)-one], the IC50 was 794 to 7940 nM.
Then `Cc1[nH]c(=O)ccc1N1CN(c2ccc(F)cc2C(C)C)c2cc(C(F)(F)F)ccc2C1=O` [Example 47, 1-(4-fluoro-2-isopropylphenyl)-3-(2-methyl-6-oxo-1,6-dihydropyridin-3-yl)-7-(trifluoromethyl)-2,3-dihydroquinazolin-4(1H)-one], with not above 100 nM; and `Cc1cc(F)ccc1N1CN(c2ccc(=O)[nH]c2C)C(=O)c2cc(Cl)ccc21` [Example 48, 6-chloro-1-(4-fluoro-2-methylphenyl)-3-(2-methyl-6-oxo-1,6-dihydropyridin-3-yl)-2,3-dihydroquinazolin-4(1H)-one], with not above 100 nM.
Consider `Cc1[nH]c(=O)ccc1N1CN(c2ccc(F)cc2)c2ccccc2C1=O` [Example 49, 1-(4-fluorophenyl)-3-(2-methyl-6-oxo-1,6-dihydropyridin-3-yl)-2,3-dihydroquinazolin-4(1H)-one], for which the IC50 was 794 to 7940 nM.
Take `Cc1ccccc1N1CN(c2ccc(=O)[nH]c2C)C(=O)c2ccccc21` [Example 50, 3-(2-methyl-6-oxo-1,6-dihydropyridin-3-yl)-1-(o-tolyl)-2,3-dihydroquinazolin-4(1H)-one]: the IC50 was 126 to 631 nM.
With `Cc1ccc2c(c1)C(=O)N(c1ccc(=O)[nH]c1C)CN2c1ccc(F)cc1C` [Example 51, 1-(4-f1uoro-2-methylphenyl)-6-methyl-3-(2-methyl-6-oxo-1,6-dihydropyridin-3-yl)-2,3-dihydroquinazolin-4(1H)-one], the IC50 is not above 100 nM.
For the molecule `Cc1cc(F)ccc1N1CN(c2ccc(=O)[nH]c2C)C(=O)c2ccccc21` [Example 52, 1-(4-fluoro-2-methylphenyl)-3-(2-methyl-6-oxo-1,6-dihydropyridin-3-yl)-2,3-dihydroquinazolin-4(1H)-one], the IC50 is not above 100 nM.
Regarding `Cc1cc(N2CN(c3ccc(F)cc3C)c3cc(C(F)(F)F)ccc3C2=O)cc(=O)[nH]1` [Example 53, 1-(4-fluoro-2-methylphenyl)-3-(6-methyl-2-oxo-1,2-dihydropyridin-4-yl)-7-(trifluoromethyl)-2,3-dihydroquinazolin-4(1H)-one], the IC50 was 794 to 7940 nM.
The result for `Cc1c[nH]c(=O)cc1N1CN(c2ccc(F)cc2C)c2cc(C(F)(F)F)ccc2C1=O` [Example 54, 1-(4-fluoro-2-methylphenyl)-3-(5-methyl-2-oxo-1,2-dihydropyridin-4-yl)-7-(trifluoromethyl)-2,3-dihydroquinazolin-4(1H)-one] reads 794 to 7940 nM.
As for `Cc1cc(F)ccc1N1CN(c2cc[nH]c(=O)c2C)C(=O)c2ccc(C(F)(F)F)cc21` [Example 55, 1-(4-fluoro-2-methylphenyl)-3-(3-methyl-2-oxo-1,2-dihydropyridin-4-yl)-7-(trifluoromethyl)-2,3-dihydroquinazolin-4(1H)-one], the IC50 is 794 to 7940 nM.
On to `Cc1cc(F)ccc1N1CN(c2ccc(=O)[nH]c2C)C(=O)c2ccc(OC(F)(F)F)cc21` [Example 56, 1-(4-fluoro-2-methylphenyl)-3-(2-methyl-6-oxo-1,6-dihydropyridin-3-yl)-7-(trifluoromethoxy)-2,3-dihydroquinazolin-4(1H)-one], for which the IC50 was not above 100 nM.
Take `Cc1ccc2c(c1)N(c1ccc(F)cc1C)CN(c1ccc(=O)[nH]c1C)C2=O` [Example 57, 1-(4-fluoro-2-methylphenyl)-7-methyl-3-(2-methyl-6-oxo-1,6-dihydropyridin-3-yl)-2,3-dihydroquinazolin-4(1H)-one]: the IC50 was not above 100 nM.
As for `Cc1cc(F)ccc1N1CN(c2ncc(=O)[nH]c2C)C(=O)c2ccc(C(F)(F)F)cc21` [Example 58, 1-(4-fluoro-2-methylphenyl)-3-(3-methyl-5-oxo-4,5-dihydropyrazin-2-yl)-7-(trifluoromethyl)-2,3-dihydroquinazolin-4(1H)-one], the IC50 was 126 to 631 nM.
The result for `Cc1cc(F)ccc1N1CN(c2cc(=O)[nH]c(=O)[nH]2)C(=O)c2ccc(C(F)(F)F)cc21` [Example 59, 6-(1-(4-fluoro-2-methylphenyl)-4-oxo-7-(trifluoromethyl)-1,4-dihydroquinazolin-3(2H)-yl)pyrimidine-2,4(1H,3H)-dione] reads 794 to 7940 nM; that for `CCc1cc(F)ccc1N1CN(c2ccc(=O)[nH]c2C)C(=O)c2cc(C(F)(F)F)ccc21` [Example 60, 1-(2-ethyl-4-fluorophenyl)-3-(2-methyl-6-oxo-1,6-dihydropyridin-3-yl)-6-(trifluoromethyl)-2,3-dihydroquinazolin-4(1H)-one], not above 100 nM; that for `Cc1cc(F)ccc1N1CN(c2c[nH]c(=O)nc2C)C(=O)c2cc(Cl)ccc21` [Example 61, 6-chloro-1-(4-fluoro-2-methylphenyl)-3-(4-methyl-2-oxo-1,2-dihydropyrimidin-5-yl)-2,3-dihydroquinazolin-4(1H)-one], not above 100 nM.
On to `Cc1cc(=O)[nH]c(C)c1N1CN(c2ccc(F)cc2C(C)C)c2cc(C(F)(F)F)ccc2C1=O` [Example 62, 3-(2,4-dimethyl-6-oxo-1,6-dihydropyridin-3-yl)-1-(4-fluoro-2-isopropylphenyl)-7-(trifluoromethyl)-2,3-dihydroquinazolin-4(1H)-one], for which the IC50 is 794 to 7940 nM.
With `Cc1[nH]c(=O)ccc1N1CN(c2ccc(F)cc2C(C)C)c2ncc(C(F)(F)F)cc2C1=O` [Example 63], the IC50 was not above 100 nM.
For `CCc1[nH]c(=O)ccc1N1CN(c2ccc(F)cc2C)c2ccc(C(F)(F)F)cc2C1=O` [Example 64, 3-(2-ethyl-6-oxo-1,6-dihydropyridin-3-yl)-1-(4-fluoro-2-methylphenyl)-6-(trifluoromethyl)-2,3-dihydroquinazolin-4(1H)-one], the IC50 was not above 100 nM.
As to `Cc1cc(F)ccc1N1CN(c2ccc(=O)[nH]c2C)C(=O)c2ccc(N(C)C)cc21` [Example 65, 7-(dimethylamino)-1-(4-fluoro-2-methylphenyl)-3-(2-methyl-6-oxo-1,6-dihydropyridin-3-yl)-2,3-dihydroquinazolin-4(1H)-one], the IC50 was not above 100 nM.
With `Cc1cc(F)ccc1N1CN(c2ccc(=O)[nH]c2C)C(=O)c2ccc(Cl)cc21` [Example 66, 7-chloro-1-(4-fluoro-2-methylphenyl)-3-(2-methyl-6-oxo-1,6-dihydropyridin-3-yl)-2,3-dihydroquinazolin-4(1H)-one], the IC50 was not above 100 nM.
For `CNc1ccc2c(c1)N(c1ccc(F)cc1C)CN(c1ccc(=O)[nH]c1C)C2=O` [Example 67, 1-(4-fluoro-2-methylphenyl)-3-(2-methyl-6-oxo-1,6-dihydropyridin-3-yl)-7-(methylamino)-2,3-dihydroquinazolin-4(1H)-one], the IC50 is 126 to 631 nM.
As to `CCOc1cc(F)ccc1N1CN(c2ccc(=O)[nH]c2C)C(=O)c2cc(Cl)ccc21` [Example 68, 6-chloro-1-(2-ethoxy-4-fluorophenyl)-3-(2-methyl-6-oxo-1,6-dihydropyridin-3-yl)-2,3-dihydroquinazolin-4(1H)-one], the IC50 is 126 to 631 nM.
With `Cc1ccc2c(c1)N(c1ccc(F)cc1C(C)C)CN(c1ccc(=O)[nH]c1C)C2=O` [Example 69, 1-(4-fluoro-2-isopropylphenyl)-7-methyl-3-(2-methyl-6-oxo-1,6-dihydropyridin-3-yl)-2,3-dihydroquinazolin-4(1H)-one], the IC50 is not above 100 nM.
For `Cc1cc(F)ccc1N1CN(c2ccc(=O)[nH]c2C)C(=O)c2cc(F)c(C(F)F)cc21` [Example 70, 7-(difluoromethyl)-6-fluoro-1-(4-fluoro-2-methylphenyl)-3-(2-methyl-6-oxo-1,6-dihydropyridin-3-yl)-2,3-dihydroquinazolin-4(1H)-one], the IC50 is not above 100 nM.
The result for `Cc1cc(F)ccc1N1CN(c2ccc(=O)[nH]c2C)C(=O)c2cc(F)c(C)nc21` [Example 71, 6-fluoro-1-(4-fluoro-2-methylphenyl)-7-methyl-3-(2-methyl-6-oxo-1,6-dihydropyridin-3-yl)-2,3-dihydropyrido[2,3-d]pyrimidin-4(1H)-one] reads 126 to 631 nM; that for `Cc1cc(F)ccc1N1CN(c2ccc(=O)[nH]c2C)C(=O)c2cc(Cl)c(C)nc21` [Example 72, 6-chloro-1-(4-fluoro-2-methylphenyl)-7-methyl-3-(2-methyl-6-oxo-1,6-dihydropyridin-3-yl)-2,3-dihydropyrido[2,3-d]pyrimidin-4(1H)-one], not above 100 nM; that for `Cc1cc(F)ccc1N1CN(c2ccc(=O)[nH]c2C)C(=O)c2cc(Cl)c(Cl)nc21` [Example 73, 6,7-dichloro-1-(4-fluoro-2-methylphenyl)-3-(2-methyl-6-oxo-1,6-dihydropyridin-3-yl)-2,3-dihydropyrido[2,3-d]pyrimidin-4(1H)-one], not above 100 nM.
For `Cc1cc(OC(F)(F)F)ccc1N1CN(c2ccc(=O)[nH]c2C)C(=O)c2c1ccc(Cl)c2F` [Example 74, 6-chloro-5-fluoro-1-(2-methyl-4-(trifluorometh-oxy)phenyl)-3-(2-methyl-6-oxo-1,6-dihydropyridin-3-yl)-2,3-dihydroquinazolin-4(1H)-one], the IC50 is not above 100 nM.
In the case of `Cc1cc(F)ccc1N1CN(c2ccc(=O)[nH]c2C)C(=O)c2cc(C#N)ccc21` [Example 75, 1-(4-fluoro-2-methylphenyl)-3-(2-methyl-6-oxo-1,6-dihydropyridin-3-yl)-4-oxo-1,2,3,4-tetrahydroquin-azoline-6-carbonitrile], the IC50 was 126 to 631 nM.
